In one experiment the target is Human mTOR (FLAG-TOR) (Homo sapiens, UniProt P42345). Nature of the experiment: mTOR kinase assay (DELFIA format, purified enzyme). The conditions noted are these: read-out: IC50 mTOR. It counts as biochemical.
Experiment [1] concerns human breast MDA-MB-361 tumor cell line. Nature of the experiment: In vitro cell culture growth assay (MTS), MDA-MB-361. The experiment is classed as cell-based. The conditions noted are these: Homo sapiens, MDA-MB-361, 72 h, MTS cell growth assay, three days after drug treatment, read-out: IC50 MDA-MB-361.
In experiment [2] the test system is human prostate PC3-mm2 tumor cell line. Nature of the experiment: In vitro cell culture growth assay (MTS), PC3-mm2. It counts as cell-based. The note with it: Homo sapiens, PC3MM2, 72 h, MTS cell growth assay, three days after drug treatment, read-out: IC50 PC3-mm2. (Tetrazolium assays rely on reduction of a dye to a coloured formazan, in cell work by metabolically active cells.)

The target in another experiment is PI3K-α (Homo sapiens, UniProt P42336). Nature of the experiment: PI3K-alpha fluorescence polarization assay. The note with it: read-out: IC50 PI3Kα. A general note: Fluorescence polarisation rises when a labelled molecule tumbles more slowly, as on binding a larger partner.
For another experiment, the target named is PI3K-γ (Homo sapiens, UniProt P48736). Nature of the experiment: PI3K-gamma fluorescence polarization assay. The note with it: read-out: IC50 PI3Kγ.

pIC50: −log10 of the molar value. Where “and” joins values, the source holds several entries; their conditions need not be identical. Equal entries are not always repeated. Where two headings read alike, the source gives them in different places. Where only a bound is given, the exact number is not on record here.

Chain of PI3K-γ (P48736 whole entry, species assumed): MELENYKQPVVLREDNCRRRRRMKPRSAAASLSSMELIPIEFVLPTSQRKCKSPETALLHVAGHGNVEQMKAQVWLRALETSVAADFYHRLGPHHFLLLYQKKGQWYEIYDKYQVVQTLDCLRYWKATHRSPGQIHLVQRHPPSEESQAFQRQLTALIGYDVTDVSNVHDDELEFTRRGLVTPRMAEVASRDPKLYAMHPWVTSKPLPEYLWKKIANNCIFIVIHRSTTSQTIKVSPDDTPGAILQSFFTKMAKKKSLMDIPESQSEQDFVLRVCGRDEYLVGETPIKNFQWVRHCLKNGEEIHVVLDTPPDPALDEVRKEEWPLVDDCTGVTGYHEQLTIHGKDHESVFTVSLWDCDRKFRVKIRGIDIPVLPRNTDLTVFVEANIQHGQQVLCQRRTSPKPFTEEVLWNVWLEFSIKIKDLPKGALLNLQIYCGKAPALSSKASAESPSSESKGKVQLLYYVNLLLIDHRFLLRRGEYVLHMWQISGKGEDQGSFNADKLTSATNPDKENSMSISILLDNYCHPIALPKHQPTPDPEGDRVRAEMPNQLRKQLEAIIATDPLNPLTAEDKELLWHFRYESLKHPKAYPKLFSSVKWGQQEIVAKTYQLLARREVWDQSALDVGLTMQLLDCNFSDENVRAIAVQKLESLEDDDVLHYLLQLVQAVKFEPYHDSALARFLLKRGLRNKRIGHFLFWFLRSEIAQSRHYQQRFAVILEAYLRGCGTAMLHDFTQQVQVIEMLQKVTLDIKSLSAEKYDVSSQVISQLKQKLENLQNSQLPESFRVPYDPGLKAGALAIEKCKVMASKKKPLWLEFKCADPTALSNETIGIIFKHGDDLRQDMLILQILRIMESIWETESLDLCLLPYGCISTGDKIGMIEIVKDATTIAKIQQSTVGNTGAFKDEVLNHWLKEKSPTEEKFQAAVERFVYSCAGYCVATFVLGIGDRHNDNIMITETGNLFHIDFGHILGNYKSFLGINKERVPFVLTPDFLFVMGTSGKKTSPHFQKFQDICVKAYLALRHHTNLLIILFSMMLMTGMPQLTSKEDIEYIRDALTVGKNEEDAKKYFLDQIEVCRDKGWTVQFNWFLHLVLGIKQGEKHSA
Chain of PI3K-α (P42336 whole entry, species assumed): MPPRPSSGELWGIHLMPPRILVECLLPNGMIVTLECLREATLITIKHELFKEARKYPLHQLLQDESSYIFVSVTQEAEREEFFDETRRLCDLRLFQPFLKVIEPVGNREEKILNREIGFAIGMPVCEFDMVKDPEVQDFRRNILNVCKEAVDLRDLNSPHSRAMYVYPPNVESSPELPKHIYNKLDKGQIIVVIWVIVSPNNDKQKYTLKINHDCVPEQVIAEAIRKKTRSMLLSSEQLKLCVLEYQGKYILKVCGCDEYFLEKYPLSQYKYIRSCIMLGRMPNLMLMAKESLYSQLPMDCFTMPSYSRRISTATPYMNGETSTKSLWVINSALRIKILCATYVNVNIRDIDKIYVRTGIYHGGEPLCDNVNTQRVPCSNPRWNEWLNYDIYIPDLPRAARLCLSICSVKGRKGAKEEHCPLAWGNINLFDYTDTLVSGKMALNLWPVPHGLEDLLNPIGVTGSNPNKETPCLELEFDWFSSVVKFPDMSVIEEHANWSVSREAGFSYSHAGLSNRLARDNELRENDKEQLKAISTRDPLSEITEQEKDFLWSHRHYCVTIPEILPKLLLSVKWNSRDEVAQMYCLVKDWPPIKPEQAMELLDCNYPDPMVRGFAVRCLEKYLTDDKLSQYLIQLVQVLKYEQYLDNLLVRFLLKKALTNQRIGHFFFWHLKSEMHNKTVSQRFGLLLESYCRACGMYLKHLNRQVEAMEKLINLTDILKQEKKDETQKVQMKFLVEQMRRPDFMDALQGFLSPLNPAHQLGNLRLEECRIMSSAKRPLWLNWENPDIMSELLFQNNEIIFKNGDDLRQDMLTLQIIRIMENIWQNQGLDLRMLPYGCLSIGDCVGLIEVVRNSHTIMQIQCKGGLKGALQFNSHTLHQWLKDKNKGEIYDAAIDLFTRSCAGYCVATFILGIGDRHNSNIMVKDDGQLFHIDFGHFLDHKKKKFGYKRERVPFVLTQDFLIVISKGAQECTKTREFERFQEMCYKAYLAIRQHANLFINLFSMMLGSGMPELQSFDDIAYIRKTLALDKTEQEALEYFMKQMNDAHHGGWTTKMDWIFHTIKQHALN
Chain of PI3K-α (P27986 whole entry partner, species assumed): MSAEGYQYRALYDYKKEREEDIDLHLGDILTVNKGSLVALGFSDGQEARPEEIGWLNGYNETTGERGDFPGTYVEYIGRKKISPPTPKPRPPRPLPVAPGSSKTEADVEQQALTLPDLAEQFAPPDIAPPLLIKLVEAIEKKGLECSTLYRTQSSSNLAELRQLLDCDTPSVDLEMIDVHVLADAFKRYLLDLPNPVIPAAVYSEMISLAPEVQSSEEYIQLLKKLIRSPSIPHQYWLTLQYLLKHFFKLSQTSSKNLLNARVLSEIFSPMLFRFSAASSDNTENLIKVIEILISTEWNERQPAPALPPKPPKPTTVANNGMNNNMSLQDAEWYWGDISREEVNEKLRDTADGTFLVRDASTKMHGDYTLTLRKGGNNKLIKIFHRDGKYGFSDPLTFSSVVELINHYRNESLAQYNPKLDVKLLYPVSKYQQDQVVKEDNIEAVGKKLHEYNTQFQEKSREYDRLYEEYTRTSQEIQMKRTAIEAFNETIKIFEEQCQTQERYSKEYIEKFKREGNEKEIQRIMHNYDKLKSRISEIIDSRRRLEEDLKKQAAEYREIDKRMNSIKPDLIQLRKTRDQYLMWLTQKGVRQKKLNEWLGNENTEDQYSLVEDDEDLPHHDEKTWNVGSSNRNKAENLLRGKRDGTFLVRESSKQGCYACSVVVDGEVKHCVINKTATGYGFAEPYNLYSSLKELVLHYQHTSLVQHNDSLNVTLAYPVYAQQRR
Chain of Human mTOR (FLAG-TOR) (P42345 1360-2549 limits assumed): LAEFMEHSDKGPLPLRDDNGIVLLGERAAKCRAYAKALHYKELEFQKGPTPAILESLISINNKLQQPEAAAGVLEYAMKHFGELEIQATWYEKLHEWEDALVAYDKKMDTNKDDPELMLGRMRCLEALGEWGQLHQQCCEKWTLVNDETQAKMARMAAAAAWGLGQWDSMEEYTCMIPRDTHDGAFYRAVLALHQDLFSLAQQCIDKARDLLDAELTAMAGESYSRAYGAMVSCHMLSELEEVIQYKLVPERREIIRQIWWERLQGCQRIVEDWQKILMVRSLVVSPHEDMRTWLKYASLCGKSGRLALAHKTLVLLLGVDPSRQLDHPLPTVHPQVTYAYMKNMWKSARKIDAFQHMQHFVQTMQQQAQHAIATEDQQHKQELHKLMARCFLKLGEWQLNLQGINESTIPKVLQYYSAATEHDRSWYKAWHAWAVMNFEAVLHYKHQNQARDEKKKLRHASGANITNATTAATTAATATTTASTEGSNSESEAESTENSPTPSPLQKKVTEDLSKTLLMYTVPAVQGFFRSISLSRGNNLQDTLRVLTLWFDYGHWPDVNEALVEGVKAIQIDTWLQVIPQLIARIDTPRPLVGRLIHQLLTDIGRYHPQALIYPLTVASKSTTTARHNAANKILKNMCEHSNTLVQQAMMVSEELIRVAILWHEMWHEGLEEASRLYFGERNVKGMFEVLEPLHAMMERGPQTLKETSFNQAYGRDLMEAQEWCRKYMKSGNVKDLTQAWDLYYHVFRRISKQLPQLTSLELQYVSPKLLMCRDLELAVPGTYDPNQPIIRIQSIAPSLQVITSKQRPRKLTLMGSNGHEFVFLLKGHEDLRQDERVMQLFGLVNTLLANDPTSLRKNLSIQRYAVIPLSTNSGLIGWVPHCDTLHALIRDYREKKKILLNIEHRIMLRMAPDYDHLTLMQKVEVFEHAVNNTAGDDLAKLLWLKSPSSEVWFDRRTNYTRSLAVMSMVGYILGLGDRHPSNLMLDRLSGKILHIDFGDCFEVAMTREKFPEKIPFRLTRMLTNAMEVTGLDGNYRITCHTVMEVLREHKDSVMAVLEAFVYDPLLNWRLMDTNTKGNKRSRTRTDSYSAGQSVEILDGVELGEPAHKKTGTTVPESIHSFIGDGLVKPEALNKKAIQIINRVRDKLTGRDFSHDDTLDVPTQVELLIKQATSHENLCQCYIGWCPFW

As a reminder, the pIC50 is the IC50 on a negative log10 scale, so that one unit is a factor of ten. On to `COC(=O)c1ccc(NC(=O)Nc2ccc(-c3nc(OC(C)C)nc(N4CCOCC4)n3)cc2)cc1` [Example 95, methyl 4-({[4-(4-isopropoxy-6-morpholin-4-yl-1,3,5-triazin-2-yl)phenyl]carbamoyl}amino)benzoate], for which the pIC50 on Human mTOR (FLAG-TOR) is 8.56; in experiment [1], 6.48; in experiment [2], 6.44; on PI3K-α it was 7.32; on PI3K-γ, 7.00.
In the case of `O=C(Nc1ccncc1)Nc1ccc(-c2nc(C3=CCOCC3)nc(N3CCOCC3)n2)cc1` [Example 100, 1-{4-[4-(3,6-Dihydro-2H-pyran-4-yl)-6-morpholin-4-yl-[1,3,5]triazin-2-yl]-phenyl}-3-pyridin-4-yl-urea], the pIC50 on Human mTOR (FLAG-TOR) was 8.46; in experiment [1], 7.25; in experiment [2], 7.25; at PI3K-α, 8.30; at PI3K-γ it was 7.42.
Turning to `CN1C2CCC1CC(Oc1nc(-c3ccc(NC(=O)Nc4ccncc4)cc3)nc(N3CCOCC3)n1)C2` (stereo not drawn) [Example 102, 1-{4-[4-(8-methyl-8-aza-bicyclo[3.2.1]oct-3-yloxy)-6-morpholin-4-yl-[1,3,5]triazin-2-yl]-phenyl}-3-pyridin-4-yl-urea], the pIC50 was 8.21 at Human mTOR (FLAG-TOR); 6.23 in experiment [1]; 6.07 in experiment [2]; 8.22 on PI3K-α; 7.08 on PI3K-γ.
Regarding `CC(C)(C)OC(=O)N1CC(CNc2nc(-c3ccc(NC(=O)Nc4ccncc4)cc3)nc(N3CCOCC3)n2)C1` [Example 104, 3-({4-Morpholin-4-yl-6-[4-(3-pyridin-4-yl-ureido)-phenyl]-[1,3,5]triazin-2-ylamino}-methyl)-azetidine-1-carboxylic acid tert-butyl ester], the pIC50 at Human mTOR (FLAG-TOR) is 7.82; in experiment [1] it was 6.39; in experiment [2], 6.16; on PI3K-α, 7.72; at PI3K-γ, 6.63.
As for `O=C(Nc1ccncc1)Nc1ccc(-c2nc(NCC3CNC3)nc(N3CCOCC3)n2)cc1` [Example 105, 1-(4-{4-[(azetidin-3-ylmethyl)-amino]-6-morpholin-4-yl-[1,3,5]triazin-2-yl}-phenyl)-3-pyridin-4-yl-urea], the pIC50 on Human mTOR (FLAG-TOR) is 7.52; in experiment [1] it was 5.43; in experiment [2] it was under 5.00; at PI3K-α it was 7.85; on PI3K-γ it was 6.95.
As to `O=C(Nc1ccncc1)Nc1ccc(-c2nc(N3CCOCC3)nc(N3CCC4(CC3)OCCO4)n2)cc1` [Example 130, 1-{4-[4-(1,4-dioxa-8-azaspiro[4.5]dec-8-yl)-6-morpholin-4-yl-1,3,5-triazin-2-yl]phenyl}-3-pyridin-4-ylurea], the pIC50 was 8.10 and 7.91 at Human mTOR (FLAG-TOR); 6.72 in experiment [1]; 6.38 in experiment [2] (PC3-mm2 cells); 6.38 in experiment [2]; 7.85 at PI3K-α; 7.87 on PI3K-α (listed as 705). Also, the pIC50 on PI3K-γ is 6.88.
In the case of `O=C(Nc1ccc(-c2nc(N3CCOCC3)nc(N3CCC4(CC3)OCCO4)n2)cc1)Nc1cccnc1` [Example 131, 1-{4-[4-(1,4-dioxa-8-azaspiro[4.5]dec-8-yl)-6-morpholin-4-yl-1,3,5-triazin-2-yl]phenyl}-3-pyridin-3-ylurea], the pIC50 on Human mTOR (FLAG-TOR) is 7.84; in experiment [1], 6.16; in experiment [2] (PC3-mm2 cells) it was 6.08; in experiment [2] it was 6.08; on PI3K-α, 7.60; on PI3K-α (listed as 706), 7.59. The pIC50 on PI3K-γ is 6.47.
On to `O=C(Nc1ccccc1)Nc1ccc(-c2nc(N3CCOCC3)nc(N3CCC4(CC3)OCCO4)n2)cc1` [Example 132, 1-{4-[4-(1,4-dioxa-8-azaspiro[4.5]dec-8-yl)-6-morpholin-4-yl-1,3,5-triazin-2-yl]phenyl}-3-phenylurea], for which the pIC50 at Human mTOR (FLAG-TOR) is 7.59 and 7.47; in experiment [1], 6.23; in experiment [2] (PC3-mm2 cells), 5.99; in experiment [2], 5.99; at PI3K-α, 7.85; at PI3K-γ it was 6.63. For the same molecule, the pIC50 at PI3K-γ (listed as 707) is 6.63.
`CN(C)c1ccc(NC(=O)Nc2ccc(-c3nc(N4CCOCC4)nc(N4CCC5(CC4)OCCO5)n3)cc2)cc1` [Example 133, 1-[4-(dimethylamino)phenyl]-3-{4-[4-(1,4-dioxa-8-azaspiro[4.5]dec-8-yl)-6-morpholin-4-yl-1,3,5-triazin-2-yl]phenyl}urea]: the pIC50 was 7.37 at Human mTOR (FLAG-TOR); 6.10 in experiment [1]; 5.71 in experiment [2] (PC3-mm2 cells); 5.71 in experiment [2]; 7.41 at PI3K-α; 7.40 at PI3K-α (listed as 708). The pIC50 at PI3K-γ and on PI3K-γ (listed as 708) was 5.05 each time.
For `N#Cc1ccc(NC(=O)Nc2ccc(-c3nc(N4CCOCC4)nc(N4CCC5(CC4)OCCO5)n3)cc2)cc1` [Example 134, 1-(4-cyanophenyl)-3-{4-[4-(1,4-dioxa-8-azaspiro[4.5]dec-8-yl)-6-morpholin-4-yl-1,3,5-triazin-2-yl]phenyl}urea], the pIC50 was 7.61 on Human mTOR (FLAG-TOR); 6.09 in experiment [1]; 6.07 in experiment [2] (PC3-mm2 cells); 6.07 in experiment [2]; 7.70 at PI3K-α; 6.74 on PI3K-γ. For the same molecule, the negative-log IC50 (pIC50) on PI3K-γ (listed as 709) was 6.74.
On to `Cc1cc(NC(=O)Nc2ccc(-c3nc(N4CCOCC4)nc(N4CCC5(CC4)OCCO5)n3)cc2)ccn1` [Example 135, 1-{4-[4-(1,4-dioxa-8-azaspiro[4.5]dec-8-yl)-6-morpholin-4-yl-1,3,5-triazin-2-yl]phenyl}-3-(2-methylpyridin-4-yl)urea], for which the pIC50 at Human mTOR (FLAG-TOR) was 7.47; in experiment [1], 6.27; in experiment [2] (PC3-mm2 cells) it was 6.29; in experiment [2], 6.29; at PI3K-α, 7.82; at PI3K-α (listed as 710), 7.81. Besides, the pIC50 at PI3K-γ and on PI3K-γ (listed as 710) was 6.84 throughout.
In the case of `O=C(Nc1ccncc1)Nc1ccc(-c2nc(-c3cnc4ccccc4c3)nc(N3CCOCC3)n2)cc1` [Example 137, 1-[4-(4-morpholin-4-yl-6-quinolin-3-yl-1,3,5-triazin-2-yl)phenyl]-3-pyridin-4-ylurea], the pIC50 at Human mTOR (FLAG-TOR) is 8.07; in experiment [1], 6.24; in experiment [2] (PC3-mm2 cells) it was 6.26; in experiment [2] it was 6.26; at PI3K-α, 8.05; at PI3K-α (listed as 712), 8.02. For the same molecule, the pIC50 at PI3K-γ was 6.93.
With `O=C(Nc1ccc(C(=O)N2CCOCC2)cc1)Nc1ccc(-c2nc(N3CCOCC3)nc(N3CCOCC3)n2)cc1` [Example 152, 1-[4-(4,6-dimorpholin-4-yl-1,3,5-triazin-2-yl)phenyl]-3-[4-(morpholin-4-ylcarbonyl)phenyl]urea], the pIC50 at Human mTOR (FLAG-TOR) is 8.70; in experiment [1] it was 8.05; in experiment [2] it was 7.85; on PI3K-α it was 8.70; on PI3K-γ, 8.30.
On to `Cc1nc(-c2ccc(NC(=O)Nc3ccncc3)cc2)nc(N2CCOCC2)n1` [Example 161, 1-[4-(4-methyl-6-morpholin-4-yl-1,3,5-triazin-2-yl)phenyl]-3-pyridin-4-ylurea], for which the negative-log IC50 (pIC50) at Human mTOR (FLAG-TOR) is 7.52; in experiment [1], 6.48; in experiment [2], 6.17; at PI3K-α, 7.41; on PI3K-γ, 6.81.
With `CN1CCN(C(=O)c2ccc(NC(=O)Nc3ccc(-c4nc(C5=CCOCC5)nc(N5CCOCC5)n4)cc3)cc2)CC1` [Example 163, 1-{4-[4-(3,6-dihydro-2H-pyran-4-yl)-6-morpholin-4-yl-1,3,5-triazin-2-yl]phenyl}-3-{4-[(4-methylpiperazin-1-yl)carbonyl]phenyl}urea], the pIC50 is 8.41 and 8.49 at Human mTOR (FLAG-TOR); 7.97 in experiment [1] (MDA-MB-361 cells); 7.97 in experiment [1]; 7.55 in experiment [2] (PC3-mm2 cells); 7.55 in experiment [2]; 8.70 at PI3K-α. Also, the results for the pIC50 on PI3K-α (listed as 507), on PI3K-γ and at PI3K-γ (listed as 507) were 8.80, 8.05 and 8.06, respectively.
Consider `Cc1nc(-c2ccc(NC(=O)Nc3ccc(C(=O)N(C)CCN(C)C)cc3)cc2)nc(N2CCOCC2)n1` [Example 165, N-[2-(dimethylamino)ethyl]-N-methyl-4-({[4-(4-methyl-6-morpholin-4-yl-1,3,5-triazin-2-yl)phenyl]carbamoyl}amino)benzamide], for which the pIC50 at Human mTOR (FLAG-TOR) was 7.55; in experiment [1] it was 6.68; in experiment [2], 6.48; at PI3K-α it was 8.05; on PI3K-γ, 7.00.
With `Cc1nc(-c2ccc(NC(=O)Nc3ccc(C(=O)N4CCN(C)CC4)cc3)cc2)nc(N2CCOCC2)n1` [Example 166, 1-[4-(4-methyl-6-morpholin-4-yl-1,3,5-triazin-2-yl)phenyl]-3-{4-[(4-methylpiperazin-1-yl)carbonyl]phenyl}urea], the pIC50 was 7.22 at Human mTOR (FLAG-TOR); 6.87 in experiment [1]; 6.60 in experiment [2]; 8.40 at PI3K-α; 7.48 on PI3K-γ.

For the origin of these results see patent publication US20090304692A1, “TRIAZINE COMPOUNDS AS PI3 KINASE AND MTOR INHIBITORS” (Wyeth, priority 2008, published 2009).
